Here are results for 2 compounds from patent publication US9321804B2, “Synthesis and use of anti-tumor drug LQC-Y” (Beijing University of Chinese Medicine, priority 2011, dated 2016).

Each structure is given as a SMILES string. Entries after “also recorded” stand apart in the source; their conditions may differ.

For series [1], the system named is Human hepatoma carcinoma cells Bel7402. The series can be described thus: Proliferation of human hepatoma carcinoma cells Bel7402 by MTT. Type of series: cell-based. As to conditions: 40 μg/ml.
The test system of series [2] is small vessel growth of CAM model. In words: Effect of LQC-Y on tumor angiogenesis using CAM method (small vessel count). In kind it is in vivo, chicken. The conditions noted are these: compared with the blank group. Here is the method:
Aseptic gelatin sponge, which was made into a wafer having a diameter of 5 mm by a hole-puncher in advance, was used as sample carrier. The prepared derivatives of bromotetramethylpyrazine series were added thereinto in an aseptic environment and different dosage groups were set according to the difference of the molecular weight of each medicine, including 10 μg/chicken embryo, 20 μg/chicken embryo and 40 μg/chicken embryo. The 0.9% physiological saline was used in a blank group. The samples were air-dried in an aseptic environment.
A hatching egg after disinfection was put into a 37° C. incubation box with air sac upward until the seventh day of incubation. The egg embryo was disinfected using alcohol at a super clean bench, and then a small hole was drilled at the top of the egg embryo using a dental drill, and the nearby egg shell and shell membrane were removed carefully to form a opening with the size of about 1.2 cm×1.2 cm. […]
After the incubation, the transparent tape blocking the chicken embryo air sac was softly removed with a nipper. […] The effect of the compounds on angiogenesis was evaluated by the count analytic method using the numbers of great vessels, medium vessels and small vessels arranged radially around the carrier. […]

Series [3] relates to Human hepatoma carcinoma cells Bel7402. The series can be described thus: Proliferation of human hepatoma carcinoma cells Bel7402 by MTT. Type of series: cell-based. As to conditions: for 24 h inhibition ratio (%): Bel7402 cells; for inhibiting effect on the proliferation of Bel7402 cells: cultured in vitro, 10-40 μg/ml. How it is done:
Human hepatoma carcinoma cells Bel7402 were recovered and subcultured using a culture flask. The preparation of the experiment was started when the cell growth entered into the exponential growth phase. The cells were then digested using pancreatic enzyme which had been filtrated at an increased pressure to prepare the cell suspension. After that the suspension was dyed for 3 min with 0.4% trypan blue. Then a blood cell counting plate was used to count the living cells which were not dyed and the dead cells which were dyed to blue. The number of the living cells identified by trypan blue was more than 98%.
Three kinds of cells which were in the exponential growth phase were inoculated at the density of 1×10^4/ml, to a 96-well plate, 200 μl for each well. Then the plate was put in a 37° C. 5% CO2 incubation box to be cultured for 24 h. The cultivation liquid was sucked away and 200 μl LQC-Y solutions of different concentrations were added thereinto (prepared with DMEM cultivation liquid containing 4% calf serum and the final concentration of which respectively were 10 μg, 20 μg, 40 μg), 4 parallel wells for each concentration. Supernatant cultivation liquid 100 μl was sucked away carefully from each well after being cultured for 24 h and 48 h, and MTS 20 μl was added into each well and homogeneously mixed. The resultant liquid was cultured in a 37° C. 5% CO2 incubation box for a further 1 h. An enzyme-labeling quantitative instrument was used to measure the absorbance at 492 nm. The experiment was repeated for 3 times and then an inhibition ratio was calculated.
The inhibition ratio of cell proliferation (%)=[(average OD value of control group-average OD value of the administration group)/average OD value of control group]×100%

The subject of the next series is S180 sarcoma of mice. In words: Tumor inhibiting effect of LQC-Y3 on tumor bearing S180 mice. Here is the method:
The S180 mice that had been inoculated for 7 days were killed by breaking the neck thereof and ascites was taken from the mice respectively in an aseptic environment and the ascites was washed using RPMI1640 culture medium for 2 times and then made into a 2×10^7/ml cell suspension using aseptic physiological saline. Then the obtained S180 cell suspension was inoculated hypodermically at the right axillary of mice, 0.1 ml for each mouse and 50 mice total, to establish the solid tumor model.
60 mice were divided into 2 categories, including 6 groups, according to the random number table method, i.e. normal control group of the first category, and S180 solid tumor groups of the second category which included positive (cyclophosphamide) control group, negative control group, small dosage group, middle dosage group and large dosage group, 10 mice for each group. The experiment was repeated for 3 times.
LQC-Y3 was prepared using 0.5% CMC-Na. The dosage of the small dosage group was 75 mg/Kg, the dosage of the middle dosage group was 150 mg/Kg, and the dosage of the large dosage group was 300 mg/kg. Equal volume of 0.5% CMC-Na was injected into the mice of the negative control group and cyclophosphamide injection 0.02 g/(Kg.d) was injected into the mice of the positive control group. These medicines were administrated 0.1 ml per mouse by intraperitoneal injection every the other day continuously for 15 days. During this period, the common behavior, hair, excrement and so on were observed daily. The mice that had been inoculated with S180 by hypodermic inoculation were killed by breaking the neck thereof after 24 h after the last administration and the tumor, liver and spleen were then taken.
The weight of the solid tumor group mice were measured after all the administration was finished and then the mice were killed. The spleens and the livers thereof were weighed by an electronic balance. The spleen index was calculated as the spleen weight of a mouse (mg)/the body weight of a mouse (g) and the liver index was calculated as the liver weight of a mouse […]/the body weight of a mouse (g).
The solid tumor negative control group mice were weighed on the next day after the administration was finished (the eyeballs of the mice were removed to bleed and the serum was collected for subsequent experimental use). Then the mice were killed by breaking the neck thereof. The tumor tissues were taken out and weighed by an electronic balance to calculate the tumor inhibiting ratio.
All the data were statistically analyzed using SPSS11.0 software pack. The comparison of the enumeration data was carried out with X^2 test. P<0.05 had statistical significance.

The next series has as its system ICR white mice. In words: Acute toxic experiment of mice by oral administration. Type of series: in vivo. More on the design: key to Animal reaction in 14 days after the administration: Appearance / Animal reaction in 14 days after the administration: Behavior / Animal reaction in 14 days after the administration: Hair / Animal reaction in 14 days after the administration: Respiration / Animal reaction in 14 days after the administration: Posture / Animal reaction in 14 days after the administration: Reaction: ✓ means normal. The conditions noted are these: for Animal reaction in 14 days after the administration: Death: 10 animals; for Animal reaction in 14 days after the administration: Death / Animal reaction in 14 days after the administration: Appearance / Animal reaction in 14 days after the administration: Behavior / Animal reaction in 14 days after the administration: Hair / Animal reaction in 14 days after the administration: Posture / Animal reaction in 14 days after the administration: Reaction / Animal reaction in 14 days after the administration: Respiration: oral 3 x 2000 mg/kg (6000 mg/kg) in one day. Here is the method: 1. Experimental Project: Acute Toxic Experiment of Mice by Oral Administration
ICR white mice (half female and half male, 18-22 g, experiment animal certificate No.: SCXK (Jing) 2006-0009);
LQC-Y3 (white powder (self prepared); and LQC-Y3 5000 mg was dissolved into 0.5% sodium carboxymethyl cellulose 100 ml and then suspended by supersonic wave. The suspension was used in situ).
The qualified animals were quarantined and weighed before the administration. Then the animals were divided into groups randomly by weight. The intragastric administration tool for mice was used to carry out the intragastric administration. The mice were fasted but not water-deprived (continuously for 14 h) overnight before being administrated. The mice were administrated at 9:00 AM for the first time (2000 mg/kg) on the present administration day and observed continuously for 1 h. The mice were administrated for the second time (2000 mg/kg) at an interval of 6 h since the first administration and observed continuously for 1 h. The mice were administrated for the third time (2000 mg/kg) at an interval of 6 h since the second administration, observed continuously for 1 h and then the mice were fed.

[4] abbreviates: S180 Balb/C mice, large dosage 300 mg/kg i.p. every other day, 15 days.
Setting [5] is: S180 Balb/C mice, middle dosage 150 mg/Kg i.p. every other day, 15 days.
Where [6] appears, read: S180 Balb/C mice, small dosage 75 mg/Kg i.p. every other day, 15 days.

With `COc1cc(/C=C/C(=O)CC(=O)/C=C/c2ccc(OCc3nc(C)c(C)nc3C)c(OC)c2)ccc1OCc1nc(C)c(C)nc1C` [LQC-Y8, (1E,6E)-1,7-bis(3-methoxy-4-((3,5,6-trimethylpyrazine-2-yl)methoxy)phenyl)heptyl-1,6-diene-3,5-diketone], the “24 h inhibition ratio (%)” value in series [1] is listed as 54.07%; in series [3] (10 μg/ml) it was 39.31%; in series [3] (20 μg/ml) it was 44.58%. Moreover, the “vessel growth inhibiting effect” value in series [2] was “significant inhibiting effect; also recorded: magnificent inhibiting effect”. Also, the “inhibiting effect on the proliferation of Bel7402 cells” value in series [3] is “evident inhibiting effect”.

In the case of `Cc1nc(C)c(COC(=O)C23CCC(C)(C)CC2C2=CCC4C5(C)CCC(O)C(C)(C)C5CCC4(C)C2(C)CC3)nc1C` (centres unmarked) [LQC-Y3, (3,5,6-trimethyl pyrazine-2-yl)methyl-10-hydroxy-2,2,6a,6b,9,9,12a-heptamethyl-1,2,3,4,4a,5,6,6a,6b,7,8,8a,9,10,11,12,12a,12b,13,14b-eicosahydropicene-4a-carboxylate], the “24 h inhibition ratio (%)” value in series [1] stood at 99.16%. In the series on S180 sarcoma of mice (75-300 mg/kg i.p.), the “effect on the growth of the S180 mice sarcoma” value is given as “can Notably Inhibit the Growth; also recorded: inhibit the growth of S180 tumor effectively”. In the series on S180 sarcoma of mice (setting [4]), the “Tumor inhibiting ratio (%)” value was determined as 50.0% and the “Tumor weight (g)” value was 0.47 ± 0.23^(3) g. In the series with S180 sarcoma of mice (setting [5]), the “Tumor inhibiting ratio (%)” value stood at 37.23% and the “Tumor weight” value is reported as 0.59 ± 0.28 g. In the series with S180 sarcoma of mice (setting [6]), the “Tumor inhibiting ratio (%)” value is 33.98% and the “Tumor weight” value was determined as 0.63 ± 0.30 g. Besides, in the series with S180 sarcoma of mice (mouse, in vivo), the “effect on the growth of the S180 sarcoma mice's weight” value is “no effect”. In the series on ICR white mice (mice, maximum dosage of 6000 mg/kg per day, oral, observed continuously for 14 days, 6000 mg/kg/day), the “toxic reaction” value is on record as “No toxic reaction; also recorded: no toxic or side effect”. In the series on ICR white mice (♀ ICR mice), the “Animal reaction in 14 days after the administration: Death” value is 0, the “Animal reaction in 14 days after the administration: Appearance” value is “✓”, the “Animal reaction in 14 days after the administration: Behavior” value is on record as “✓” and the “Animal reaction in 14 days after the administration: Hair” value is listed as “✓”. In addition, in the series with ICR white mice (♀ ICR mice), the “Animal reaction in 14 days after the administration: Posture” value is given as “✓”, the “Animal reaction in 14 days after the administration: Reaction” value is on record as “✓” and the “Animal reaction in 14 days after the administration: Respiration” value was “✓”. For the same compound, in the series with ICR white mice (♂ ICR mice), the “Animal reaction in 14 days after the administration: Death” value is on record as 0, the “Animal reaction in 14 days after the administration: Appearance” value was “✓”, the “Animal reaction in 14 days after the administration: Behavior” value is listed as “✓” and the “Animal reaction in 14 days after the administration: Hair” value is on record as “✓”. Also, in the series on ICR white mice (♂ ICR mice), the “Animal reaction in 14 days after the administration: Posture” value is reported as “✓”, the “Animal reaction in 14 days after the administration: Reaction” value is “✓” and the “Animal reaction in 14 days after the administration: Respiration” value was “✓”. In series [3] (10 μg/ml), the “24 h inhibition ratio (%)” value is reported as 34.53%. In addition, the “24 h inhibition ratio (%)” value in series [3] (20 μg/ml) came to 89.07%. Also, in series [3], the “inhibiting effect on the proliferation of Bel7402 cells” value is reported as “evident inhibiting effect”.
